We go through 52 compounds from patent publication US11299475B2, “Prostacyclin receptor agonist” (MEDSHINE DISCOVERY INC., priority 2018, dated 2022).

A value given as a limit tells only on which side of the number the result lay.

The target of this test is T1, PGI2 receptor (Homo sapiens, UniProt P43119).
T1 construct: host or cells: thawed 'PGI2 cell' suspension
T1 sequence (P43119 whole entry, species assumed): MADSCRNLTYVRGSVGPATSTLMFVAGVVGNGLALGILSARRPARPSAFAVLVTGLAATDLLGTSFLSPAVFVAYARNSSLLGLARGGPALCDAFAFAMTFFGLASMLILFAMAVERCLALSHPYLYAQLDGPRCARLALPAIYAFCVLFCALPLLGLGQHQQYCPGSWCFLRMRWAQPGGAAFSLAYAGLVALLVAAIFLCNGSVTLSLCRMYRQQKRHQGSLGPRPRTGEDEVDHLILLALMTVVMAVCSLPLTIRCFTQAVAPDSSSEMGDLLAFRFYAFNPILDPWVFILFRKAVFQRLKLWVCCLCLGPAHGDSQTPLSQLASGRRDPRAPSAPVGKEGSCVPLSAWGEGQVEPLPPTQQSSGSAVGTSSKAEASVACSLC
The test is described as follows: PGI2 cAMP cell assay in vitro (HTRF cAMP). It counts as cell-based. The note with it: cells in vitro. The method, then:
PGI2 cAMP Cell Assay In Vitro:
A series of cells were placed in a 37° C. water bath for rapid thawing, and the cell suspension was transferred to a 15 mL centrifuge tube containing 10 mL HBSS, and mixed uniformly. The cells were centrifuged at 1000 rpm for 5 minutes at room temperature. The supernatant was removed after centrifugation.
The centrifuge tube was tapped gently to suspend the cells after centrifugation, then the cells were re-suspended with 10 mL HBSS (Hanks buffered saline solution) and mixed uniformly by pipetting up and down. The cells were counted by Vi-cell. The cells were centrifuged for the second time at 1000 rpm for 5 minutes. The cells were re-suspended by experimental buffer to reach a cell concentration of 1.5×10^5/mL.
The samples were diluted with the Bravo automated liquid handling platform to make the initial concentration of the sample reach 2 mM and 5-fold serial dilution at 10 points. The control sample was diluted with Bravo to make the initial concentration of the sample reach 2 mM and 5-fold serial dilution at 10 points.
50 nL DMSO or sample to be tested was transferred to PE384-well OptiPlate by Echo. The cell suspension was transferred to the testing plate by electric pipette, 10 μL cells/well. The testing plate was centrifuged at 1000 rpm […]. The testing plate was incubated at room temperature for 60 minutes. Two kinds of test reagents were added to the testing plate, 5 µL/well. The testing plate was centrifuged at 1000 rpm for 1 minute. The experimental plate was sealed with Top Seal-A film and incubated at room temperature for 60 minutes. TopSeal-A was removed and the value was read on EnVision.
In general terms: TR-FRET usually uses a lanthanide donor and a delayed reading to cut background.
By EC50 is commonly meant the midpoint of the concentration-response curve. A lower EC50 goes with an effect from little substance. `O=C(O)COCC1CCN(c2cncc(N(c3ccccc3)c3ccc(Cl)cc3)n2)CC1` [Compound 1] registered a 50% effective concentration (EC50) of 2.02 nM.
To `O=C(O)COCC1CCN(c2nccc(N(c3ccccc3)c3ccc(Cl)cc3)n2)CC1` [Compound 2] belongs 2990 nM.
Compound `O=C(O)COCC1CCN(c2cncc(N(c3ccccc3)c3ccc(F)cc3)n2)CC1` [Compound 3] came in with an EC50 of 2.09 nM.
Under `O=C(O)COCC1CCN(c2cncc(N(c3ccccc3)c3ccccc3)n2)CC1` [Compound 4] stands 2.99 nM; under `COc1ccc(N(c2ccccc2)c2cncc(N3CCC(COCC(=O)O)CC3)n2)cc1` [Compound 5], 3.74 nM.
Under `O=C(O)COCC1CCN(c2cncc(N(c3ccccc3)c3ccc(OC(F)(F)F)cc3)n2)CC1` [Compound 6] stands 3.55 nM; under `COc1cccc(N(c2ccccc2)c2cncc(N3CCC(COCC(=O)O)CC3)n2)c1` [Compound 7], 2.12 nM; under `O=C(O)COCC1CCN(c2cncc(N(c3ccccc3)c3cccc(OC(F)(F)F)c3)n2)CC1` [Compound 8], 38 nM.
To `O=C(O)COCC1CCN(c2cncc(N(c3ccccc3)c3cccc(F)c3)n2)CC1` [Compound 9] belongs 12.8 nM; to `O=C(O)COCC1CCN(c2cncc(N(c3ccccc3)c3ccc(F)c(F)c3)n2)CC1` [Compound 10], 10.2 nM; to `O=C(O)COCC1CCN(c2cncc(N(c3ccccc3)c3cc(F)cc(F)c3)n2)CC1` [Compound 11], 123 nM.
Consider `O=C(O)COCC1CCN(c2cncc(N(c3ccccc3)c3cccc(Cl)c3)n2)CC1` [Compound 12], for which the half-maximal effective concentration (EC50) stood at 4.84 nM.
To `O=C(O)COCC1CCN(c2cncc(N(c3ccccc3)c3ccc(OC(F)F)cc3)n2)CC1` [Compound 13] belongs 4.17 nM; to `O=C(O)COCC1CCN(c2cncc(N(c3ccccc3)c3cccc(OC(F)F)c3)n2)CC1` [Compound 14], 9.65 nM.
To `O=C(O)COCC1CCN(c2cccc(N(c3ccccc3)c3ccccc3)n2)CC1` [Compound 15] belongs over 2000 nM; to `O=C(O)COCC1CCN(c2ccnc(N(c3ccccc3)c3ccccc3)n2)CC1` [Compound 16], 23.5 nM; to `O=C(O)COCC1(F)CCN(c2cncc(N(c3ccccc3)c3ccccc3)n2)CC1` [Compound 17], 0.29 nM.
Consider `CS(=O)(=O)NC(=O)COCC1(F)CCN(c2cncc(N(c3ccccc3)c3ccccc3)n2)CC1` [Compound 18], for which the midpoint of the response, the EC50, lay at 79.9 nM.
Under `CCOC(=O)COCC1(F)CCN(c2cncc(N(c3ccccc3)c3ccccc3)n2)CC1` [Compound 19] stands 6.11 nM.
To `O=C(O)COCC1(F)CCN(c2cncc(N(c3ccccc3)c3ccc(OC(F)F)cc3)n2)CC1` [Compound 20] belongs 1.65 nM; to `O=C(O)COCC1(F)CCN(c2cncc(N(c3ccccc3)c3cccc(OC(F)F)c3)n2)CC1` [Compound 21], 3 nM; to `O=C(O)COCC1(F)CCN(c2cncc(N(c3ccccc3)c3cccc(F)c3)n2)CC1` [Compound 22], 0.22 nM.
Under `COc1ccc(N(c2ccccc2)c2cncc(N3CCC(F)(COCC(=O)O)CC3)n2)cc1` [Compound 23] stands 1.1 nM; under `COc1cccc(N(c2ccccc2)c2cncc(N3CCC(F)(COCC(=O)O)CC3)n2)c1` [Compound 24], 0.41 nM; under `O=C(O)COCC1(F)CCN(c2cncc(N(c3ccccc3)c3ccc(Cl)cc3)n2)CC1` [Compound 25], 0.8 nM.
In the case of `O=C(O)COCC1(F)CCN(c2cncc(N(c3ccccc3)c3ccc(OC(F)(F)F)cc3)n2)CC1` [Compound 26], a half-maximal response (EC50) required 3.73 nM.
`O=C(O)COCC1(F)CCN(c2cncc(N(c3cccc(F)c3)c3ccccn3)n2)CC1` [Compound 27] registered a concentration giving a half-maximal response (EC50) of 6.74 nM.
Under `O=C(O)COCC1(F)CCN(c2cncc(N(c3cccc(Cl)c3)c3ccccn3)n2)CC1` [Compound 28] stands 2.17 nM.
Under `COc1cccc(N(c2ccc(F)cn2)c2cncc(N3CCC(F)(COCC(=O)O)CC3)n2)c1` [Compound 29] stands 4.19 nM.
Under `O=C(O)COCC1(F)CCN(c2cncc(N(c3ccccc3)c3ccccn3)n2)CC1` [Compound 30] stands 3.26 nM; under `O=C(O)COCC1(F)CCN(c2cncc(N(c3ccccc3)c3cccc(F)n3)n2)CC1` [Compound 31], 1.61 nM.
In turn, `O=C(O)COCC1(F)CCN(c2cncc(N(c3ccccc3)c3ccc(F)cn3)n2)CC1` [Compound 32] yielded a concentration for a half-maximal effect (EC50) of 1.41 nM.
For the compound `CS(=O)(=O)NC(=O)COCC1(F)CCN(c2cncc(N(c3ccccc3)c3ccc(F)cn3)n2)CC1` [Compound 33], the response was half-maximal at 118 nM (EC50).
To `COc1ccc(N(c2ccccc2)c2cncc(N3CCC(F)(COCC(=O)O)CC3)n2)nc1` [Compound 34] belongs 1.9 nM; to `O=C(O)COCC1(F)CCN(c2cncc(N(c3ccccc3)c3ccc(F)cc3)n2)CC1` [Compound 35], 0.43 nM; to `CS(=O)(=O)NC(=O)COCC1(F)CCN(c2cncc(N(c3ccccc3)c3ccc(F)cc3)n2)CC1` [Compound 36], 4.97 nM.
Under `O=C(O)COCC1(F)CCN(c2cncc(N(c3ccccc3)C3CCCCC3)n2)CC1` [Compound 37] stands 34.2 nM; under `COc1ccc(N(c2ccc(Cl)cc2)c2cncc(N3CCC(F)(COCC(=O)O)CC3)n2)nc1` [Compound 38], 459 nM.
Under `O=C(O)COCC1(F)CCN(c2cncc(N(c3ccc(Cl)cc3)c3ccc(F)cn3)n2)CC1` [Compound 39] stands over 300 nM.
`O=C(O)COCC1(F)CCN(c2cncc(N(c3ccc(F)cc3)c3ccccn3)n2)CC1` [Compound 40]: a half-maximal effect (EC50) was put at 3.2 nM.
The compound `O=C(O)COCC1(F)CCN(c2cncc(N(c3ccc(Cl)cc3)c3ccccn3)n2)CC1` [Compound 41] displayed an EC50 of 2.94 nM.
As for `COc1ccc(N(c2ccccn2)c2cncc(N3CCC(F)(COCC(=O)O)CC3)n2)cc1` [Compound 42], it took 2.63 nM to reach a half-maximal effect (EC50).
As for `O=C(O)COCC1(F)CCN(c2cncc(N(c3ccccc3)c3ccc(Cl)cn3)n2)CC1` [Compound 43], the EC50 was 1.07 nM.
To `O=C(O)COCC1(F)CCN(c2cncc(N(c3ccccc3)c3cc(Cl)ccn3)n2)CC1` [Compound 44] belongs 1.98 nM; to `Cc1ccc(N(c2ccccc2)c2cncc(N3CCC(F)(COCC(=O)O)CC3)n2)nc1` [Compound 45], 1.55 nM; to `O=C(O)COCC1(F)CCN(c2cncc(N(c3ccccc3)c3nccs3)n2)CC1` [Compound 46], 20.1 nM.
For `O=C(O)COCC1CC=C(c2cncc(N(c3ccccc3)c3ccc(Cl)cc3)n2)CC1` (stereo not shown) [Compound 47], the EC50 stood at 40.1 nM.
To `O=C(O)COC[C@H]1CC[C@@H](c2cncc(N(c3ccccc3)c3ccccc3)n2)CC1` [Compound 48a] belongs 18 nM; to `O=C(O)COC[C@H]1CC[C@H](c2cncc(N(c3ccccc3)c3ccccc3)n2)CC1` [Compound 48b], 3.72 nM.
Consider `O=C(O)COCC1(F)CCN(c2cncc(C(O)(c3ccccc3)c3ccccc3)n2)CC1` [Compound 49], for which the concentration giving a half-maximal response (EC50) came to 81 nM.
`O=C(O)COCC1(F)CCN(c2cncc(C(c3ccccc3)c3ccccc3)n2)CC1` [Compound 50] came in with a concentration giving a half-maximal response (EC50) of 5.36 nM.
In turn, `COC(c1ccccc1)(c1ccccc1)c1cncc(N2CCC(F)(COCC(=O)O)CC2)n1` [Compound 51] registered a concentration giving a half-maximal response (EC50) of 322 nM.
